From patent US7220775B2, “Compound useful for the treatment of neuropathic pain” (H. Lundbeck A/S, priority 2002, dated 2007)

Key:
[1] = system: neuropathic rats (chronic constriction nerve injury); assay: Chronic constriction nerve injury model of neuropathic pain: mechanical allodynia (Von Frey filaments); format: in vivo, rat; conditions: for effect on withdrawal threshold of the nerve-injured hind paw (Von Frey) vs vehicle / withdrawal threshold of the nerve-injured paw to Von Frey filament challenges: 30 mg/kg i.p.; for withdrawal threshold of the nerve-injured paw to Von Frey filament challenges: Day 12 PO
Experimental: The aim of this study was to assess the potential analgesic effects of Example 92 following intraperitoneal administration at the doses of 3, 10 and 30 mg/kg, respectively, in an animal model of neuropathic pain. A peripheral mononeuropathy was induced in the right hind limb of rats following a chronic constriction nerve injury (Bennett and Xie, 1988), and the development of mechanical allodynia and thermal hyperalgesia was monitored using established behavioral tests (Attal, N., et al., 1990; Hargreaves, K., et al., 1988).
Male Sprague-Dawley rats within the weight range of 200-225 g, and approximate age 7-9 weeks, were allowed to acclimate for a minimum of 6 days prior to the start of the behavioral testing.
All rats underwent a chronic constriction nerve injury, and of these, those that successfully developed allodynia and hyperalgesia were allocated to treatment groups.
There were 5 separate treatment groups (with a minimum of 10 rats per group). The treatment groups were as follows: • Group C received Morphine at 10 mg/kg (n=10) • Group D received Vehicle for Example 92* at 1 ml/kg (n=10) (* 100% DMSO) • Group E received Example 92 at 30 mg/kg (n=10) • Group F received Example 92 at 3 mg/kg (n=10) • Group G received Example 92 at 10 mg/kg (n=10)
The dose volume for all treatments was 1 ml/kg. Each rat received a single i.p. dose of the test substance, reference substance or vehicle on Day 12 PO. Test substance and vehicle dosing solutions were encoded (C-G) so that the observers were unaware of the identity of the treatment groups.
The behavioral tests (Von Frey filament and Thermal Plantar Tests—see below) were performed on all rats on 3 separate days prior to […], to establish baseline values. The pre-surgery baseline values were calculated as the mean of the last 2 days testing (the data from the first day of testing were not included as this was classed as part of the acclimating period). The sequence of tests was always mechanical allodynia (Von Frey Test) followed by thermal hyperalgesia (Thermal Plantar Test), with a minimum 5 min period allowed between the 2 tests.
Each animal was placed in a wire mesh cage and a series of Von Frey filaments (ranging from filament handle number 3.61 to 6.10) applied to the plantar surface of the hind paw, from below. The filaments were applied in ascending order (starting with the weakest force) and the withdrawal threshold for both the ipsilateral and contralateral hind paws was evaluated. Each filament was indented on the plantar surface of the foot to the point where it just started to bend, and this was repeated approximately 8-10 times per filament at a frequency of approximately 1 Hz. The withdrawal threshold was defined as the lowest force of two or more consecutive Von Frey filaments to elicit a reflex withdrawal response.
The animals were surgically prepared over 5 days. Each rat was anaesthetized with sodium pentobarbitone (60 mg/ml; 0.6 ml/kg dose, intraperitonealy; batch number 00230; expiry date 22 May 3) and then supplemented as necessary with isoflurane (1-3% in oxygen). The surface around the incision site was shaved and then sterilized with surgical spirit. Under aseptic conditions the right sciatic nerve was exposed by blunt dissection at mid-thigh level and approximately 1 cm of nerve was freed of adhering connective tissue. Four chromic cat gut (4.0) ligatures, spaced at approximately 1 mm inzervals, were then tied so as to barely constrict the nerve (as viewed under 40× magnification) to induce a peripheral mononeuropathy in the right hind limb. The overlying muscle and skin were then closed in layers using suture material, and the anesthesia discontinued. On recovery from anesthesia, the rats were re-housed with their cage mates on soft padded bedding overnight (to reduce the risk of infection) and subsequently on sawdust bedding following full recovery. The animals were allowed 4 full days to recover before the behavioral testing was recommenced. […]

[2] = molecular target: T1, human dopamine D4 receptor (Homo sapiens, UniProt P21917); assay: Dopamine D4 receptor binding; conditions: Table 10
T1 construct: purchased BioSignal, Inc. (Montreal, Canada)
Description: (§1) Other receptors: Cell membranes expressing human dopamine D1, D2, D4 and rat D3 receptors were purchased through BioSignal, Inc. (Montreal, Canada). Binding assays using the histamine H, receptor; dopamine receptors; and α1A, α1B, and α2 adrenergic receptors may be carried out according to the procedures described in U.S. Pat. No. 5,780,485, the disclosure of which is hereby incorporated by reference in its entirety into this application. Binding assays using the dopamine D5 receptor may be carried out according to the procedures described in U.S. Pat. No. 5,882,855, the disclosure of which is hereby incorporated by reference in its entirety into this application. Binding assays for the human α1D adrenergic receptor may be carried out according to the procedures described in U.S. Pat. No. 6,156,518, the disclosure of which is hereby incorporated by reference in its entirety into this application.

h5HT1A = molecular target: T2, h5HT1A (Homo sapiens, UniProt P08908); assay: 5-HT1A receptor binding (3H-8-OH-DPAT); conditions: Table 8
T2 construct: expressed in transfected cells; host or cells: COS-7 cells, transient, vector pCEXV-3
Experimental: 5-HT1A Receptor: The cDNA corresponding to the 5-HT1A receptor open reading frames and variable non-coding 5′- and 3′-regions, was cloned into the eukaryotic expression vector pCEXV-3. These constructs were transfected transiently into COS-7 cells by the DEAE-dextran method (Cullen, 1987), and harvested after 72 hours. Radioligand binding assays were performed as described above for the 5-HT2A receptor, except that ^3H-8-OH-DPAT was used as the radioligand and nonspecific binding was determined by the addition of 10 μM mianserin.

h5HT6 = molecular target: T3, h5HT6 (Homo sapiens, UniProt P50406); assay: 5-HT6 receptor binding; conditions: Table 8
T3 construct: expressed in transfected cells
Experimental: Other 5-HT Receptors: Other serotonin receptor binding assays were performed according to published methods: rat 5HT2C receptor (Julius et al., 1988); and 5-HT6 (Monsma, et al., 1993). The binding assays using the 5-HT4 receptor were performed according to the procedures described in U.S. Pat. No. 5,766,879, the disclosure of which is hereby incorporated by reference in its entirety into this application.

[3] = molecular target: T4, 5HT transporter (r5HT Uptk) (Rattus norvegicus, UniProt P31652); assay: Binding at native 5HT transporter; conditions: Table 8
T4 construct: native, tissue-derived transporters; from tissue
Experimental: (§2) The binding properties of the compounds of the present invention were evaluated at one or more cloned receptors or native, tissue-derived transporters, using protocols described below.
(§3) The methods to determine binding affinity at native transporters are described in the following publications: 5HT transporter and NE transporter (Owens et al., 1997), and DA transporter (Javitch et al, 1984).

[4] = molecular target: T5, DA transporter (rDA Uptk) (Rattus norvegicus, UniProt P23977); assay: Binding at native DA transporter; conditions: Table 8
T5 construct: native, tissue-derived transporters; from tissue
Experimental: as §2, §3

[5] = molecular target: T6, human dopamine D2 receptor (Homo sapiens, UniProt P14416); assay: Dopamine D2 receptor binding; conditions: Table 10
T6 construct: purchased BioSignal, Inc. (Montreal, Canada)
Description: as §1

[6] = molecular target: human histamine H1 receptor (Homo sapiens, UniProt P35367); assay: Histamine H1 receptor binding; conditions: Table 10
Description: as §1

T3 sequence (P50406 whole entry): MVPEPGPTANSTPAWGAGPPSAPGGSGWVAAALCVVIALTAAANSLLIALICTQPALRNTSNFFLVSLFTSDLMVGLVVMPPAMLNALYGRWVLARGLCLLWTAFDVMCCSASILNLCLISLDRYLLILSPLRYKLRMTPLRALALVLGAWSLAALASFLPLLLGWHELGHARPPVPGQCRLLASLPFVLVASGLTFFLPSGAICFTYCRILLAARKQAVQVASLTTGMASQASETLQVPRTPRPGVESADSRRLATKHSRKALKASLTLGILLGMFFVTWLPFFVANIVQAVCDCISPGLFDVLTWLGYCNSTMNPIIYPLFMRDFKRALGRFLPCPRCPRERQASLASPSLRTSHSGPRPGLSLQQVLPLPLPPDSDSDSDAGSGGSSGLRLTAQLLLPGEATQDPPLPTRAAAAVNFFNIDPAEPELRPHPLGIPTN
T6 sequence (P14416 whole entry): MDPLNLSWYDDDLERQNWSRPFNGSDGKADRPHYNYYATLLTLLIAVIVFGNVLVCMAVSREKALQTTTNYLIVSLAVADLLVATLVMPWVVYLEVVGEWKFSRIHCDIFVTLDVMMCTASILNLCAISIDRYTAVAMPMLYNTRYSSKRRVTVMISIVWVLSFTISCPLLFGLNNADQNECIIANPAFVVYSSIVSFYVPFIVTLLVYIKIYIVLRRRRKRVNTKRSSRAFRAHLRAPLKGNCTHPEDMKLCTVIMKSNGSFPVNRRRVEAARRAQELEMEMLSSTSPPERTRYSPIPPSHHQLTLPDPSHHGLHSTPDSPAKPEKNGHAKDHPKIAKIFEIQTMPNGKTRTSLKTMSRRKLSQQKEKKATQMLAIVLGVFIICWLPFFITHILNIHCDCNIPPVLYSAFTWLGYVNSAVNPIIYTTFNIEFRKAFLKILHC
human histamine H1 receptor, sequence (P35367 whole entry): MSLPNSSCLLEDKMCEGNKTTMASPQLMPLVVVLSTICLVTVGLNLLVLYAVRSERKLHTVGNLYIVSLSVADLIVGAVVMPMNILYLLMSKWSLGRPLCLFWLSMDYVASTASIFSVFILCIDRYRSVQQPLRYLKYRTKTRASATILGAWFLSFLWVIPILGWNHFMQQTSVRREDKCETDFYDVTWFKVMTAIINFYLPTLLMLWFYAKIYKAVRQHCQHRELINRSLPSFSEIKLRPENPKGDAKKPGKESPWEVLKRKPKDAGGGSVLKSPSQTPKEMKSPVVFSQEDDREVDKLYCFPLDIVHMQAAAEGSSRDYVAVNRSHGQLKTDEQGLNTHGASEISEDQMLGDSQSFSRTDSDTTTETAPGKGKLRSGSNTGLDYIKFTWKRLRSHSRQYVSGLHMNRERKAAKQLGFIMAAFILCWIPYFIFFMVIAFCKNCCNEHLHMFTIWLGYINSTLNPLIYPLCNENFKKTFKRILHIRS
T2 sequence (P08908 whole entry): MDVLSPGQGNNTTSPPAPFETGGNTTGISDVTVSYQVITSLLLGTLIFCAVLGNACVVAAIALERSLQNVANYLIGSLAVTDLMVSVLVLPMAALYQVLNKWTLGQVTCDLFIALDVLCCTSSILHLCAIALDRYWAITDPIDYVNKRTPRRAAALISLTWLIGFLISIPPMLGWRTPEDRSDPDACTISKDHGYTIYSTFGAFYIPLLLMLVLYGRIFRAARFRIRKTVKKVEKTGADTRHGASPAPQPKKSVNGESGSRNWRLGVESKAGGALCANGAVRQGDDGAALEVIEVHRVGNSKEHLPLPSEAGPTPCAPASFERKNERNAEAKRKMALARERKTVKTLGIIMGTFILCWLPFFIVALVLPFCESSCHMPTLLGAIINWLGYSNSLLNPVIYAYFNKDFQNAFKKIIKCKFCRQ
T5 sequence (P23977 whole entry): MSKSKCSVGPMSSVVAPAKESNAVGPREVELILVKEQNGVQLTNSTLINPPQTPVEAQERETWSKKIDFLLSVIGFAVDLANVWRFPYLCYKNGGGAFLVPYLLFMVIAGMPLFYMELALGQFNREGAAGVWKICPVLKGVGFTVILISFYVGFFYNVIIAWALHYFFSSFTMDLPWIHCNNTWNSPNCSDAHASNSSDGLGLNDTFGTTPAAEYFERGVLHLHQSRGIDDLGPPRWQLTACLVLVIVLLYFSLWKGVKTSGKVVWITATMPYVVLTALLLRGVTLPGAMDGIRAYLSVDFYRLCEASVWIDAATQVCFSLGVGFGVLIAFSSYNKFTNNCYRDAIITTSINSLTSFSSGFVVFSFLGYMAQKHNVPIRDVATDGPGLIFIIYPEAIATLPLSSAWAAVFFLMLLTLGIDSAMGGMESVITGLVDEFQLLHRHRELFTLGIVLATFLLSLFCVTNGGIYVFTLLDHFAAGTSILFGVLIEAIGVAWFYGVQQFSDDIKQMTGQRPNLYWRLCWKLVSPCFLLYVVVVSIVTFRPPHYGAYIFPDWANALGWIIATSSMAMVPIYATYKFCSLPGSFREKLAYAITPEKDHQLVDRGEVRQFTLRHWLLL
T4 sequence (P31652 whole entry): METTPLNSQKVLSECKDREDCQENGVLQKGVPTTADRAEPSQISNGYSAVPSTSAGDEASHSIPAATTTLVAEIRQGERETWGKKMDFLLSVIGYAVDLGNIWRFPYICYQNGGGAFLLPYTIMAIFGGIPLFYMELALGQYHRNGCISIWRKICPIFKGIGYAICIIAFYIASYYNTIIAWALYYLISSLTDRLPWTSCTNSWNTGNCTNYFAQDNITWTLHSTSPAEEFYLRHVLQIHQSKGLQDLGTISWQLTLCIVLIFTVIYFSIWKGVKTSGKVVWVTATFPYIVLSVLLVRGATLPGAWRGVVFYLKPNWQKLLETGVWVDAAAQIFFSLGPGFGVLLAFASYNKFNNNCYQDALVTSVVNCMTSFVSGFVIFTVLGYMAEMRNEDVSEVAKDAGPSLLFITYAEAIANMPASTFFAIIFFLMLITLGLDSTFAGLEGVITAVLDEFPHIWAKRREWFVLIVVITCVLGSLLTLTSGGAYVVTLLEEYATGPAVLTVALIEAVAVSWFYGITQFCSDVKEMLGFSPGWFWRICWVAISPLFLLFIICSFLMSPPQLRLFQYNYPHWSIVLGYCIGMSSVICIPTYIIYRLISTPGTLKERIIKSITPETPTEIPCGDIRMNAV
T1 sequence (P21917 whole entry): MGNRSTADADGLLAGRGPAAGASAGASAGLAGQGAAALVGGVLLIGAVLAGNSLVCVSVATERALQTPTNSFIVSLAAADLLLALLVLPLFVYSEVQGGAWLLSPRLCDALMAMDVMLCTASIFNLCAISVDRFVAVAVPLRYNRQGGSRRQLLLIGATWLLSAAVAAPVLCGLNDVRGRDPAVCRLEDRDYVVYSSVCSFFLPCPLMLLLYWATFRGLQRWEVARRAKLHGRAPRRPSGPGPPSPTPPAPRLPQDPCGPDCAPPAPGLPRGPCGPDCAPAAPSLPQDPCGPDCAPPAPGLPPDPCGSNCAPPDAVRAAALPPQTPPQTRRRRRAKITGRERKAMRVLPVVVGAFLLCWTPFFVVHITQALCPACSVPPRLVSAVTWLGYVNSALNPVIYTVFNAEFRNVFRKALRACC

SMILES: O=C1C(=Nc2cccc(C(F)(F)F)c2)c2ccccc2N1c1ccccc1 [Example 92, 1-PHENYL-3-[[3-(TRIFLUOROMETHYL)PHENYL]IMINO]-1,3-DIHYDRO-2H-INDOL-2-ONE]
- effect on withdrawal threshold of the nerve-injured hind paw (Von Frey) vs vehicle ([1]; 30 min PD): significantly increased
- withdrawal threshold of the nerve-injured paw to Von Frey filament challenges ([1]; 30 min PD, vehicle 4.82±2.77 g, P≦0.05): 25.98 ± 8.25 g
- effect on withdrawal threshold of the nerve-injured hind paw (Von Frey) vs vehicle ([1]; 90 min PD): not found to be significant
- withdrawal threshold of the nerve-injured paw to Von Frey filament challenges ([1]; 90 min PD, vehicle 2.43±1.48 g): 11.73 ± 6.43 g
- responses of the uninjured (contralateral) left paw (Von Frey) vs vehicle ([1]; 3, 10, 30 mg/kg i.p., any time point): No significant changes
- effect on withdrawal threshold of the nerve-injured paw (Von Frey) vs vehicle ([1]; 3 or 10 mg/kg i.p., any time point): no significant effect
- selectivity ratio hD4 (Ki hD4 / Ki hGAL3) [2]: >100
- selectivity ratio h5HT1A (Ki h5HT1A / Ki hGAL3) (h5HT1A): >100
- selectivity ratio h5HT6 (Ki h5HT6 / Ki hGAL3) (h5HT6): >100
- selectivity ratio r5HT Uptk (Ki r5HT Uptk / Ki hGAL3) [3]: >100
- selectivity ratio rDA Uptk (Ki rDA Uptk / Ki hGAL3) [4]: >100
- selectivity ratio hD2 (Ki hD2 / Ki hGAL3) [5]: >100
- selectivity ratio hH1 (Ki hH1 / Ki hGAL3) [6]: >100
